Where a name gives a salt, the structure may show the parent alone.
Molecular target: T1, Human recombinant full-length MNK1 protein (Homo sapiens, UniProt Q9BUB5)
T1 construct: Human recombinant full-length MNK1 protein; purchased Thermo PR9138A
Assay: MNK1 inhibitory activity assay (ADP-Glo in vitro kinase assay)
Format: biochemical
Settings: 10 concentration points
Method: MNK1 Inhibitory Activity Assay: Evaluation of the effects of compounds of the invention on […] (MNK1) activity using in vitro kinase assays. The experimental methods are summarized as follows: The in vitro activity of MNK1 was determined by measuring the level of ADP produced in the kinase reaction using the ADP-Glo Kinase Assay Kit. The reaction buffer consisted of the following components: 50 mM HEPES, pH 7.5, 10 mM MgCl2, 1 mM EGTA, 0.01% Brij35. Human recombinant full-length MNK1 protein (Thermo, Cat. No. PR9138A) was diluted with a reaction buffer to a 3.13 ng/uL kinase solution. The substrate reaction solution consisted of a substrate diluted to 0.75 mg/ml in reaction buffer ([…], available from […] Domestic Company), 2250 uM ATP, the ADP-Glo reagent and kinase assay solution from Promega kit (Promega, V9102). […] If the compound IC50 value is very low, the initial concentration of the compound can be lowered. To a 384-well assay plate (Thermo, Cat. No. 264706) were added 1 uL of compound solution and 2 uL of MNK1 kinase solution. The mixture was mixed well and incubated for 30 minutes at room temperature; then 2 uL of substrate reaction solution was added, the reaction mixture was incubated for 120 minutes at room temperature. The reaction was terminated after an equal volume of 5uLADP-Glo solution was added, and the remaining ATP was completely consumed. After mixing for 60 minutes at room temperature, 10 ul of the kinase assay solution was added, and the mixture was uniformly mixed, and allowed to stand at room temperature for 40 minutes in the dark. The detection solution converts ADP into new ATP through coupled luciferase/luciferin, and ATP is converted into optical signal by Ultr-GloTM luciferase, which can be detected by Envision. The intensity of the light signal is proportional correlated with the amount of ADP produced in the kinase reaction, therefore, the activity of MNK1 kinase can be determined. In this experiment, the group without protein was used as a negative control (100% inhibition). The group with protein but without compounds was used as a positive control (0% inhibition).

T1 sequence (Q9BUB5 whole entry): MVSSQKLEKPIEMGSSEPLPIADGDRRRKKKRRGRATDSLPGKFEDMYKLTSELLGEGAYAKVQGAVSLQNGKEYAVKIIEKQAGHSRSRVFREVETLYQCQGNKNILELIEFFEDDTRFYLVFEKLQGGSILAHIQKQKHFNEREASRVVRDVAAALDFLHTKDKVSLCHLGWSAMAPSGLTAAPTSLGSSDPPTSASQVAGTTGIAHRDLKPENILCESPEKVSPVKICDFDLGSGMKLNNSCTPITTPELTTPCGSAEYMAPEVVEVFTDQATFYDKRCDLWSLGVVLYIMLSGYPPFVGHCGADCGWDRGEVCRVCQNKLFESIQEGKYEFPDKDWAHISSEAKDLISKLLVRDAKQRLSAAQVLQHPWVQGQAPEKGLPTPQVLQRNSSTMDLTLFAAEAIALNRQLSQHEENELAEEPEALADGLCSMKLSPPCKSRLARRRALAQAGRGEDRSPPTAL

| SMILES | IC50 [nM] |
| --- | --- |
| COc1cc2[nH]ncc2cc1Nc1ncnc(N)c1C#N [Compound 42, 5-((6-Amino-5-cyanopyrimidin-4-yl)amino)-6-methoxy-1H-indazole] | 600 |
| COc1cc2c(cnn2C(=O)OC(C)(C)C)cc1Nc1ncnc(N)c1-c1ccccn1 [Compound 43] | 264 |
| COc1cc2[nH]ncc2cc1Nc1ncnc(N)c1-c1ccccn1 [Compound 44, 5-((6-amino-5-(pyridin-2-yl)pyrimidin-4-yl)amino-6-methoxy-1H-indazole formate] | 1000 |
| COc1cc2[nH]ncc2cc1Nc1ncnc(N)c1F [Compound 45, 5-((6-Amino-5-fluoropyrimidin-4-yl)amino)-6-methoxy-1H-indazole] | 35.3 |
| COc1cc2[nH]ncc2cc1Nc1ncnc(N)c1OC [Compound 46, 5-((6-Amino-5-methoxypyrimidin-4-yl)amino)-6-methoxy-1H-indazole] | 49.4 |
| COc1cc2[nH]ncc2cc1Nc1ncnc(N)c1C [Compound 47, 5-((6-Amino-5-methylpyrimidin-4-yl)amino)-6-methoxy-1H-indazole] | 79.1 |
| COc1cc2[nH]ncc2cc1Nc1ncnc(NC(=O)C2CC2)c1C [Compound 48, 5-((6-(Cyclopropionamido)-5-methylpyrimidin-4-yl)amino)-6-methoxy-1H-indazole] | 187 |
| COc1cc2[nH]ncc2cc1Nc1cc(NS(=O)(=O)C2CC2)ncn1 [Compound 49, 5-((6-(Cyclopropanesulfonylamino)pyrimidin-4-yl)amino)-6-methoxy-1H-indazole] | 1050 |
| COc1nc2[nH]ncc2cc1Nc1cc(NC(C)=O)ncn1 [Compound 50, 5-(6-(Acetamido)pyrimidin-4-yl) amino)-6-methoxy-1H-pyrazolo [3,4-b] pyridine formate] | 254 |
| COc1cc(Nc2cc3cn[nH]c3cc2OC)ncn1 [Compound 51, 5-(6-Methoxypyrimidin-4-yl) amino)-6-methoxy-1H-indazole formate] | 197 |
| COc1cc2[nH]ncc2cc1Nc1ncncc1OC [Compound 52] | 14.4 |
| COCCOc1cncnc1Nc1cc2cn[nH]c2cc1OC [Compound 53] | 22.8 |
| COc1cc2[nH]ncc2cc1Nc1ncncc1OCCO [Compound 54, 5-(5-(2-Hydroxyethoxy)pyrimidin-4-yl) amino)-6-methoxy-1H-indazole formate] | 34.3 |
| COc1cc2[nH]ncc2cc1Nc1ncncc1OCCN1CCOCC1 [Compound 55, 5-(5-(2-(4-Morpholine)ethoxy)pyrimidin-4-yl) amino)-6-methoxy-1H-indazole formate] | 187 |
| CCOc1cncnc1Nc1cc2cn[nH]c2cc1OC [Compound 56, 5-(5-Ethoxypyrimidin-4-yl) amino)-6-methoxy-1H-indazole formate] | 19.8 |
| COc1cc2[nH]ncc2cc1Nc1ncncc1Nc1ccccc1 [Compound 57, 5-(5-Anilinopyrimidin-4-yl) amino)-6-methoxy-1H-indazole formate] | 323 |
| COc1cc2[nH]ncc2cc1Nc1ncnc2[nH]cnc12 [Compound 58, N-(6-Methoxy-1H-indazol-5-yl)-purin-6-amine] | 6.1 |
| COc1cc2[nH]ncc2cc1Nc1ncnc2c1ncn2C [Compound 59, N-(6-Methoxy-1H-indazol-5-yl)-9-methyl-9H-purin-6-amine] | 432 |

| SMILES | IC50 [nM] |
| --- | --- |
| COc1cc2c(cc1Nc1cc(NC(=O)C3CC3)ncn1)ncn2C(=O)OC(C)(C)C [Compound 60, 1-tert-butoxycarbonyl-5-(6-cyclopropionamidopyrimidin-4-ylamino)-6-methoxybenzimidazole] | 792 |
| COc1cc2ncn(C(=O)OC(C)(C)C)c2cc1Nc1cc(NC(=O)C2CC2)ncn1 [Compound 61, 3-tert-butoxycarbonyl-5-(6-cyclopropionamidopyrimidin-4-ylamino)-6-methoxybenzimidazole] | 594 |
| CNc1cncnc1Nc1cc2cn[nH]c2cc1OC [Compound 62, 5-(5-Methylaminopyrimidin-4-yl) amino)-6-methoxy-1H-indazole formate] | 75.3 |
| COc1cn2nccc2cc1Nc1cc(NC(=O)C2CC2)ncn1 [Compound 63, N-(6-((6-Methoxypyrazolo[1,5-a]pyridin-5-yl)amino)pyrimidin-4-yl)cyclopropanecarboxamide] | 97.1 |
| COc1cc2[nH]ncc2cc1Nc1ncncc1-c1nc2cccc(N3CCN[C@@H](C)C3)c2n1C [Compound 64, 6-Methoxy-N-(4-{1-methyl-7-[(3S)-3-methylpiperazin-1-yl]-1H-benzimidazol-2-yl}pyrimidine-5-)-1H-indazol-5-amine] | 437 |
| COc1cc2[nH]ncc2cc1Nc1cc(-n2ccnc2)ncn1 [Compound 65, N-(6-(1H-Imidazol-1-yl)pyrimidin-4-yl)-6-methoxy-1H-indazol-5-amine formate] | 694 |
| COc1c(Nc2cc(N)ncn2)ccc2c1CNC2=O [Compound 66, 5-((6-Aminopyrimidin-4-yl)amino)-4-methoxyisoindolin-1-one hydrochloride] | 38.5 |
| COc1c(Nc2cc(Nc3ncccn3)ncn2)ccc2c1CNC2=O [Compound 69, 5-((6-(Pyrimidin-2-ylamino)pyrimidin-4-yl)amino)-4-methoxyisodihydroindol-1-one] | 27.3 |
| COc1c(Nc2cc(Nc3ccncn3)ncn2)ccc2c1CNC2=O [Compound 70, 5-((6-(Pyrimidin-4-ylamino)pyrimidin-4-yl)amino)-4-methoxyisodihydroindol-1-one] | 17 |
| COc1c(N)ncnc1Nc1ccc2c(c1OC)CNC2=O [Compound 71, 5-((6-Amino-5-methoxypyrimidin-4-yl)amino)-4-methoxyisoindolin-1-one] | 128 |
| COc1c(Nc2cc(NC(=O)C3CC3)ncn2)ccc2c1CN(C)C2=O [Compound 72, 5-((6-(Cyclopropionamido)pyrimidin-4-yl)amino)-4-methoxy-2-methylisodihydroindol-1-one] | 30.5 |
| COc1c(Nc2cc(NC(=O)C3CC3)ncn2)ccc2c1C(C)(C)N(C)C2=O [Compound 73, 5-((6-(Cyclopropionamido)pyrimidin-4-yl)amino)-4-methoxy-2,3,3-trimethylisoindole-1-one] | 188 |
| COc1cncnc1Nc1ccc2c(c1OC)CNC2=O [Compound 74, 5-((5-Methoxypyrimidin-4-yl)amino)-4-methoxyisodihydroindole-1-one] | 38.4 |
| COCCOc1cncnc1Nc1ccc2c(c1OC)CNC2=O [Compound 75, 5-((5-(2-Methoxyethoxy)pyrimidin-4-yl)amino)-4-methoxyisodihydroindole-1-one] | 34.4 |
| COc1c(Nc2ncncc2OCCN2CCOCC2)ccc2c1CNC2=O [Compound 76, 5-((5-(2-(4-morpholin)ethoxy)pyrimidin-4-yl)amino)-4-methoxyisodihydroindol-1-one formate] | 572 |
| COc1c(Nc2ncncc2OCCN(C)C)ccc2c1CNC2=O [Compound 77, 5-((5-(2-(Dimethylamino)ethoxy)pyrimidin-4-yl)amino)-4-methoxyisodihydroindole-1-one dicarboxylate] | 900 |
| COc1c(Nc2ncncc2OCCO)ccc2c1CNC2=O [Compound 78, 5-((5-(2-Hydroxyethoxy)pyrimidin-4-yl)amino)-4-methoxyisoindolin-1-one] | 19.7 |

Reference: patent US20220289719A1, “HETEROCYCLIC COMPOUNDS AS MNK INHIBITORS” (NANJING INNOCARE PHARMA TECH CO., LTD., priority 2017, published 2022)
